In US11161819B2, “Substituted tetrahydroisoquinoline compounds useful as GPR120 agonists” (Merck Sharp & Dohme Corp., priority 2016, dated 2021):

Target: T1, human GPR120 (Homo sapiens, UniProt Q5NUL3)
T1 construct: expressed in transfected cells
T1 sequence (Q5NUL3 1-361): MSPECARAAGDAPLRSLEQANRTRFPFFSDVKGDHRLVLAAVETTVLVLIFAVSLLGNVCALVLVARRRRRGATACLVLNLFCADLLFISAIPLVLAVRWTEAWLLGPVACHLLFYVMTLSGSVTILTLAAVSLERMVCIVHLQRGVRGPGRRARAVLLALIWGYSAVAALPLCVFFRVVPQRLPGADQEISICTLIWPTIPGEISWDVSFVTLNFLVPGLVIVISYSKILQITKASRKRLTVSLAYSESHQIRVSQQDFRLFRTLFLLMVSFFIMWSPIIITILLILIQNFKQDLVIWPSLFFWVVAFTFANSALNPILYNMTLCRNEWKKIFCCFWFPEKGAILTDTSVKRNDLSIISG
Experiment: Human GPR120 IP1 Assay (inositol phosphate turnover, CisBio IP-One kit)
Assay type: cell-based
Conditions: IP1 accumulation in CHO-K1 cells stably expressing the short form of human GPR120; 60 min compound incubation; 4-parameter fit; read-out: hGPR120 EC50
In short: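 CHO-K1 cells stably expressing short-form human GPR120 were stimulated with compounds for 60 minutes at 37 degrees in stimulation buffer. IP1 accumulation measured by HTRF competitive immunoassay (665/620 nm ratio) against an IP1 standard curve, normalized to a reference compound; EC50 from 4-parameter fit.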

Compared with `O=C(O)[C@H]1C[C@@H]1c1ccc2c(c1F)CCN(c1cc(OC3CCC3)cc(Cl)c1F)C2` [Example 125, (1S,2S)-2-{2-[3-chloro-5-(cyclobutyloxy)-2-fluorophenyl]-5-fluoro-1,2,3,4-tetrahydroisoquinolin-6-yl}cyclopropane-carboxylic acid], `N#Cc1c(F)cc(OC2CCC2)cc1N1CCc2c(ccc([C@H]3C[C@@H]3C(=O)O)c2F)C1` [Example 126, (1S,2S)-2-{2-[2-cyano-5-(cyclo-butyloxy)-3-fluorophenyl]-5-fluoro-1,2,3,4-tetrahydroiso-quinolin-6-yl}cyclopropane-carboxylic acid] is 24-fold higher in EC50: 414 nM for the first, 9740 nM for the second. The first is the more potent here.

`Cc1ccc(-n2nc(C)c(C#N)c2N2CCc3cc(CCCCC(=O)O)ccc3C2)cc1` [Example 127, 5-(2-(4-cyano-3-methyl-1-(p-tolyl)-1H-pyrazol-5-yl)-1,2,3,4-tetrahydro-isoquinolin-6-yl)pentanoic acid] and `COc1ccc(-n2nc(C)c(C#N)c2N2CCc3cc(CCCCC(=O)O)ccc3C2)cc1` [Example 133, 5-{2-[4-cyano-1-(4-methoxyphenyl)-3-methyl-1H-pyrazol-5-yl]-1,2,3,4-tetrahydroisoquinolin-6-yl} pentanoic acid] are within 1.5-fold of each other in EC50: 35 nM for the first, 50 nM for the second.

`Cc1ccc(-n2nc(C)c(C#N)c2N2CCc3cc(O)ccc3C2)cc1` [Example 129, 5-(6-hydroxy-3,4-dihydroisoquinolin-2(1H)-yl)-3-methyl-1-(p-tolyl)-1H-pyrazole-4-carbonitrile] and `Cc1ccc(-n2nc(C)c(C#N)c2N2CCc3cc(OCCO)ccc3C2)cc1` [Example 130, 5-(6-(2-hydroxyethoxy)-3,4-dihydroisoquinolin-2(1H)-yl)-3-methyl-1-(p-tolyl)-1H-pyrazole-4-carbonitrile] are within 1.5-fold of each other in EC50: 92 nM for the first, 87 nM for the second.

Going from `O=C(O)CCc1cc2c(cc1F)CN(c1cc(OC3CCC3)cc(F)c1F)CC2` [Example 131, 3-(2-(5-cyclobutoxy-2,3-difluorophenyl)-7-fluoro-1,2,3,4-tetrahydro-isoquinolin-6-yl)propanoic acid] to `CO[C@H]1C[C@H](Oc2cc(F)c(F)c(N3CCc4cc(CCc5nnn[nH]5)ccc4C3)c2)C1` [Example 132, 6-(2-(1H-tetrazol-5-yl)ethyl)-2-(2,3-difluoro-5-((1r,3r)-3-methoxylcyclobutoxy)-phenyl)-1,2,3,4-tetrahydroisoquinoline], the EC50 rises from 174 nM to 406 nM (2.3-fold).

Compared with `Cc1ccc(-n2nc(C)c(C#N)c2N2CCc3cc(CCCCC(=O)O)ccc3C2)cc1` [Example 134, 5-{2-[4-cyano-3-methyl-1-(4-methyl-phenyl)-1H-pyrazol-5-yl]-1,2,3,4-tetrahydroisoquinolin-6-yl}pentanoic acid], `Cc1ccc(-n2nc(C)c(Cl)c2N2CCc3cc(CCCCC(=O)O)ccc3C2)cc1` [Example 137, 5-{2-[4-chloro-3-methyl-1-(4-methylphenyl)-1H-pyrazol-5-yl]-1,2,3,4-tetrahydroisoquinolin-6-yl} pentanoic acid] is 2.3-fold higher in EC50: 41 nM for the first, 93 nM for the second.

Compared with `Cc1ccc(-n2nc(C)c(C#N)c2N2CCc3cc(OCCCCO)ccc3C2)cc1` [Example 139, 5-[6-(4-hydroxybutoxy)-3,4-dihydro-isoquinolin-2(1H)-yl]-3-methyl-1-(4-methylphenyl)-1H-pyrazole-4-carbonitrile], `Cc1ccc(-n2nc(C)c(C#N)c2N2CCc3cc(OCCCO)ccc3C2)cc1` [Example 144, 5-[6-(3-hydroxypropoxy)-3,4-dihydroisoquinolin-2(1H)-yl]-3-methyl-1-(4-methylphenyl)-1H-pyrazole-4-carbonitrile] is 23-fold higher in EC50: 187 nM for the first, 4300 nM for the second.

`COc1ccc(-n2nc(C)c(C#N)c2N2CCc3ccccc3C2)cc1` [Example 141, 5-(3,4-dihydroisoquinolin-2(1H)-yl)-1-(4-methoxyphenyl)-3-methyl-1H-pyrazole-4-carbonitrile] and `Cc1ccc(-n2nc(C)c(F)c2CN2CCc3cc(CCC(=O)O)ccc3C2)cc1` [Example 143, 3-(2-{[4-fluoro-3-methyl-1-(4-methylphenyl)-1H-pyrazol-5-yl]methyl}-1,2,3,4-tetrahydroisoquinolin-6-yl)propanoic acid] are within 1.5-fold of each other in EC50: 288 nM for the first, 395 nM for the second.
